The test deals with BDF1 mice, Adenocarcinoma 755 s.c., tumor weight T/C. Briefly: NCI In Vivo Anticancer Drug Screen. Data for tumor model Adenocarcinoma 755 (subcutaneous) in B6D2F1 (BDF1) mice. The settings on record: endpoint: mean tumor weight, higher = larger tumour. Summed up:
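In vivo antitumor screen on a transplantable tumor line. Result equals the measure in compound-treated animals divided by the same measure in vehicle controls.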

[1] abbreviates: dose: 30.0 mg/kg/injection, schedule: Q01DX011 (ip), vehicle: carboxymethylcellulose (CMC).
The mark [2] stands for this setting: dose: 60.0 mg/kg/injection, schedule: Q01DX011 (ip), vehicle: carboxymethylcellulose (CMC).
[3] abbreviates: dose: 31.0 mg/kg/injection, schedule: Q01DX011 (ip), vehicle: methylcellulose (MC).
Setting [4] is: dose: 1.0 mg/kg/injection, schedule: Q01DX011 (ip), vehicle: carboxymethylcellulose (CMC).
Setting [5] is: dose: 2.0 mg/kg/injection, schedule: Q01DX011 (ip), vehicle: carboxymethylcellulose (CMC).

Where “and” joins values, the source holds several entries; their conditions need not be identical. Equal entries are not always repeated.

The term T/C denotes the ratio of treated to control. `Nc1nc(SCc2ccccn2)c2ncn(C3CCCC3)c2n1`: the T/C (dose: 1.1 mg/kg/injection, schedule: Q01DX011 (ip), vehicle: carboxymethylcellulose (CMC)) is 79 % of control; the T/C (dose: 2.3 mg/kg/injection, schedule: Q01DX011 (ip), vehicle: carboxymethylcellulose (CMC)) is 96 % of control; the T/C (dose: 4.6 mg/kg/injection, schedule: Q01DX011 (ip), vehicle: carboxymethylcellulose (CMC)) is 74 % of control; the T/C (dose: 9.3 mg/kg/injection, schedule: Q01DX011 (ip), vehicle: carboxymethylcellulose (CMC)) was 22 % of control; the T/C (dose: 37.5 mg/kg/injection, schedule: Q01DX011 (ip), vehicle: carboxymethylcellulose (CMC)) was 2 % of control.

Regarding `O=C(CCBr)N1CCN(C(=O)CCBr)CC1`, the T/C is 103 % of control (dose: 5.6 mg/kg/injection, schedule: Q01DX011 (ip), vehicle: methylcellulose (MC)); 89 % of control and 94 % of control (dose: 11.25 mg/kg/injection, schedule: Q01DX011 (ip), vehicle: methylcellulose (MC)); 56 % of control (dose: 15.0 mg/kg/injection, schedule: Q01DX011 (ip), vehicle: carboxymethylcellulose (CMC)); 40 % of control and 65 % of control (dose: 22.5 mg/kg/injection, schedule: Q01DX011 (ip), vehicle: methylcellulose (MC)); 37 % of control under setting [1]; 51 % of control (dose: 45.0 mg/kg/injection, schedule: Q01DX011 (ip), vehicle: methylcellulose (MC)). Moreover, the T/C is 24 % of control under setting [2] and 12 % of control (dose: 90.0 mg/kg/injection, schedule: Q01DX011 (ip), vehicle: methylcellulose (MC)).

For `Nc1n[se]nc1C(=O)O`, under “dose: 0.75 mg/kg/injection, schedule: Q01DX011 (ip), vehicle: carboxymethylcellulose (CMC)”, the T/C is 82 % of control.

Regarding `O=c1cn[nH]c(=O)[nH]1`, the T/C is 104 % of control (dose: 110.1 mg/kg/injection, schedule: Q01DX011 (ip), vehicle: carboxymethylcellulose (CMC)); 66 % of control (dose: 125.0 mg/kg/injection, schedule: Q01DX011 (ip), vehicle: carboxymethylcellulose (CMC)); 80 % of control (dose: 220.2 mg/kg/injection, schedule: Q01DX011 (ip), vehicle: carboxymethylcellulose (CMC)); 107 % of control (dose: 250.0 mg/kg/injection, schedule: Q01DX011 (ip), vehicle: carboxymethylcellulose (CMC)); 84 % of control (dose: 440.4 mg/kg/injection, schedule: Q01DX011 (ip), vehicle: carboxymethylcellulose (CMC)); 87 % of control (dose: 500.0 mg/kg/injection, schedule: Q01DX011 (ip), vehicle: carboxymethylcellulose (CMC)). Moreover, the T/C was 77 % of control (dose: 880.8 mg/kg/injection, schedule: Q01DX011 (ip), vehicle: carboxymethylcellulose (CMC)) and 80 % of control (dose: 1000.0 mg/kg/injection, schedule: Q01DX011 (ip), vehicle: carboxymethylcellulose (CMC)).

In the case of `Nc1ncc(N)c(N)n1`, the T/C was 89 % of control under setting [1]; 116 % of control under setting [2]; 111 % of control (dose: 120.0 mg/kg/injection, schedule: Q01DX011 (ip), vehicle: carboxymethylcellulose (CMC)); 96 % of control (dose: 240.0 mg/kg/injection, schedule: Q01DX011 (ip), vehicle: carboxymethylcellulose (CMC)).

With `CC1(C)OC2C(CO)OC(n3cnc4c(SCc5ccccc5)ncnc43)C2O1` (stereo not drawn), the T/C reads like this: under setting [3], 79 % of control; (dose: 62.0 mg/kg/injection, schedule: Q01DX011 (ip), vehicle: methylcellulose (MC)) 59 % of control; (dose: 125.0 mg/kg/injection, schedule: Q01DX011 (ip), vehicle: methylcellulose (MC)) 50 % of control.

For the compound `CC(O)CNc1ncnc2c1cnn2C` (stereo not drawn), the T/C (dose: 12.5 mg/kg/injection, schedule: Q01DX011 (ip), vehicle: saline) is 94 % of control; the T/C (dose: 25.0 mg/kg/injection, schedule: Q01DX011 (ip), vehicle: saline) was 30 % of control; the T/C (dose: 50.0 mg/kg/injection, schedule: Q01DX011 (ip), vehicle: saline) was 10 % of control.

For `Cn1c(N)c(C(=O)CCl)c(=O)n(C)c1=O`, the T/C under setting [1] is 66 % of control.

Turning to `[Cl][Pt+2]([Cl])([Cl])[Cl].[Na+].[S-]c1ncnc2nc[nH]c12.[S-]c1ncnc2nc[nH]c12`, the T/C reads like this: under setting [4], 90 % of control; (dose: 1.7 mg/kg/injection, schedule: Q01DX011 (ip), vehicle: carboxymethylcellulose (CMC)) 101 % of control; under setting [5], 43 % of control; (dose: 3.5 mg/kg/injection, schedule: Q01DX011 (ip), vehicle: carboxymethylcellulose (CMC)) 31 % of control; (dose: 4.0 mg/kg/injection, schedule: Q01DX011 (ip), vehicle: saline) 5 % of control; (dose: 7.0 mg/kg/injection, schedule: Q01DX011 (ip), vehicle: carboxymethylcellulose (CMC)) 3 % of control and 6 % of control. The T/C (dose: 8.0 mg/kg/injection, schedule: Q01DX011 (ip), vehicle: saline) is 4 % of control; the T/C (dose: 10.0 mg/kg/injection, schedule: Q01DX011 (ip), vehicle: carboxymethylcellulose (CMC)) is 21 % of control; the T/C (dose: 14.0 mg/kg/injection, schedule: Q01DX011 (ip), vehicle: carboxymethylcellulose (CMC)) is 1 % of control and 2 % of control; the T/C (dose: 20.0 mg/kg/injection, schedule: Q01DX011 (ip), vehicle: carboxymethylcellulose (CMC)) was 1 % of control; the T/C (dose: 28.0 mg/kg/injection, schedule: Q01DX011 (ip), vehicle: carboxymethylcellulose (CMC)) was 5 % of control; the T/C (dose: 32.0 mg/kg/injection, schedule: Q01DX011 (ip), vehicle: saline) was 1 % of control. Besides, the T/C runs as follows: (dose: 43.8 mg/kg/injection, schedule: Q01DX011 (oral), vehicle: saline) 96 % of control; (dose: 87.5 mg/kg/injection, schedule: Q01DX011 (oral), vehicle: saline) 12 % of control; (dose: 175.0 mg/kg/injection, schedule: Q01DX011 (oral), vehicle: saline) 7 % of control.

For `CN(C)CCO`, the T/C (dose: 100.0 mg/kg/injection, schedule: Q01DX011 (ip), vehicle: other) was 97 % of control.

As for `CCc1c(Cl)nc(N)nc1Nc1ccc(Cl)c(Cl)c1`, the T/C is, setting by setting: (dose: 15.0 mg/kg/injection, schedule: Q01DX011 (ip), vehicle: methylcellulose (MC)) 117 % of control; under setting [3], 123 % of control.

Consider `S=c1nc[nH]c2nc[nH]c12.[Cd]`, for which the T/C (dose: 0.4 mg/kg/injection, schedule: Q01DX011 (ip), vehicle: saline) is 38 % of control.

In the case of `CCCCn1cnc2c(SSc3ncnc4c3ncn4CCCC)ncnc21`, the T/C was 94 % of control (dose: 0.5 mg/kg/injection, schedule: Q01DX011 (ip), vehicle: carboxymethylcellulose (CMC)); 104 % of control under setting [4]; 101 % of control under setting [5]; 77 % of control (dose: 4.0 mg/kg/injection, schedule: Q01DX011 (ip), vehicle: carboxymethylcellulose (CMC)); 32 % of control (dose: 7.5 mg/kg/injection, schedule: Q01DX011 (ip), vehicle: other); 19 % of control (dose: 8.0 mg/kg/injection, schedule: Q01DX011 (ip), vehicle: carboxymethylcellulose (CMC)). For the same compound, the T/C is, setting by setting: (dose: 15.0 mg/kg/injection, schedule: Q01DX011 (ip), vehicle: other) 23 % of control; (dose: 16.0 mg/kg/injection, schedule: Q01DX011 (ip), vehicle: carboxymethylcellulose (CMC)) 13 % of control; (dose: 30.0 mg/kg/injection, schedule: Q01DX011 (ip), vehicle: other) 1 % of control; (dose: 31.0 mg/kg/injection, schedule: Q01DX011 (ip), vehicle: carboxymethylcellulose (CMC)) 6 % of control; (dose: 62.0 mg/kg/injection, schedule: Q01DX011 (ip), vehicle: carboxymethylcellulose (CMC)) 5 % of control.

Consider `Cn1cnc2nc[nH]c2c1=N`, for which the T/C runs as follows: (dose: 30.0 mg/kg/injection, schedule: Q01DX011 (ip), vehicle: saline) 115 % of control; (dose: 60.0 mg/kg/injection, schedule: Q01DX011 (ip), vehicle: saline) 93 % of control; (dose: 120.0 mg/kg/injection, schedule: Q01DX011 (ip), vehicle: saline) 74 % of control; (dose: 240.0 mg/kg/injection, schedule: Q01DX011 (ip), vehicle: saline) 109 % of control.

In the case of `O=S(=O)(OCCCl)OCCCl`, the T/C (dose: 12.5 mg/kg/injection, schedule: Q01DX011 (ip), vehicle: olive oil, sesame oil, peanut oil) was 109 % of control and the T/C (dose: 25.0 mg/kg/injection, schedule: Q01DX011 (ip), vehicle: olive oil, sesame oil, peanut oil) was 86 % of control.

As for `CC(C)CC(Nc1ncnc2nc[nH]c12)C(=O)O` (stereo not drawn), the T/C runs as follows: (dose: 12.0 mg/kg/injection, schedule: Q01DX011 (ip), vehicle: methylcellulose (MC)) 110 % of control; (dose: 25.0 mg/kg/injection, schedule: Q01DX011 (ip), vehicle: methylcellulose (MC)) 96 % of control; (dose: 50.0 mg/kg/injection, schedule: Q01DX011 (ip), vehicle: methylcellulose (MC)) 101 % of control; (dose: 100.0 mg/kg/injection, schedule: Q01DX011 (ip), vehicle: methylcellulose (MC)) 60 % of control.

The values are drawn from PubChem BioAssay AID180 (DTP/NCI, 2004).
